Measurements: US9693556B2, “Herbicidal pyridazinone derivatives” (SYNGENTA LIMITED, priority 2011, dated 2017)

How the values were obtained:
Type in all cases: in vivo
[1] = test system: Alopecurus myosuroides (ALOMY); test: Pre-emergence herbicidal glasshouse test on Alopecurus myosuroides; conditions: pre-emergence, 1000 g/h, evaluated after 13 days
How it was run: (§1)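 Steps: sow seeds in standard soil; cultivate 1 d (pre-) or 8 d (post-emergence) at 24/16 °C, 14 h light, 65% humidity; spray 1000 g/h in acetone/water plus Tween 20; grow on, watering twice daily; score percentage damage after 13 d.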

Setaria faberi (SETFA) [2] = test: Pre-emergence herbicidal glasshouse test on Setaria faberi; conditions: pre-emergence, 1000 g/h, evaluated after 13 days
How it was run: as §1

[3] = test system: Echinochloa crus-galli (ECHCG); test: Pre-emergence herbicidal glasshouse test on Echinochloa crus-galli; conditions: pre-emergence, 1000 g/h, evaluated after 13 days
How it was run: as §1

Solanum nigrum (SOLNI) [4] = test: Pre-emergence herbicidal glasshouse test on Solanum nigrum; conditions: pre-emergence, 1000 g/h, evaluated after 13 days
How it was run: as §1

[5] = test system: Amaranthus retoflexus (AMARE); test: Pre-emergence herbicidal glasshouse test on Amaranthus retoflexus; conditions: pre-emergence, 1000 g/h, evaluated after 13 days
How it was run: as §1

[6] = test system: Ipomoea hederacea (IPOHE); test: Pre-emergence herbicidal glasshouse test on Ipomoea hederacea; conditions: pre-emergence, 1000 g/h, evaluated after 13 days
How it was run: as §1

[7] = test system: Alopecurus myosuroides (ALOMY); test: Post-emergence herbicidal glasshouse test on Alopecurus myosuroides; conditions: post-emergence, 1000 g/h, evaluated after 13 days
How it was run: as §1

Setaria faberi (SETFA) [8] = test: Post-emergence herbicidal glasshouse test on Setaria faberi; conditions: post-emergence, 1000 g/h, evaluated after 13 days
How it was run: as §1

[9] = test system: Echinochloa crus-galli (ECHCG); test: Post-emergence herbicidal glasshouse test on Echinochloa crus-galli; conditions: post-emergence, 1000 g/h, evaluated after 13 days
How it was run: as §1

Solanum nigrum (SOLNI) [10] = test: Post-emergence herbicidal glasshouse test on Solanum nigrum; conditions: post-emergence, 1000 g/h, evaluated after 13 days
How it was run: as §1

[11] = test system: Amaranthus retoflexus (AMARE); test: Post-emergence herbicidal glasshouse test on Amaranthus retoflexus; conditions: post-emergence, 1000 g/h, evaluated after 13 days
How it was run: as §1

[12] = test system: Ipomoea hederacea (IPOHE); test: Post-emergence herbicidal glasshouse test on Ipomoea hederacea; conditions: post-emergence, 1000 g/h, evaluated after 13 days
How it was run: as §1

| Compound | PRE Application ALOMY herbicidal damage (five point scale) [1] | PRE Application SETFA herbicidal damage (five point scale) (Setaria faberi (SETFA) [2]) | PRE Application ECHCG herbicidal damage (five point scale) [3] | PRE Application SOLNI herbicidal damage (five point scale) (Solanum nigrum (SOLNI) [4]) | PRE Application AMARE herbicidal damage (five point scale) [5] | PRE Application IPOHE herbicidal damage (five point scale) [6] | POST Application ALOMY herbicidal damage (five point scale) [7] | POST Application SETFA herbicidal damage (five point scale) (Setaria faberi (SETFA) [8]) | POST Application ECHCG herbicidal damage (five point scale) [9] | POST Application SOLNI herbicidal damage (five point scale) (Solanum nigrum (SOLNI) [10]) | POST Application AMARE herbicidal damage (five point scale) [11] | POST Application IPOHE herbicidal damage (five point scale) [12] | further results |
| --- | --- | --- | --- | --- | --- | --- | --- | --- | --- | --- | --- | --- | --- |
| Cc1c(-c2cnn(C(C)(C)C)c(=O)c2O)ccc(S(C)(=O)=O)c1C1=NOCC1 [Compound 1.131] | 1 (1=0-19% damage) | 1 (1=0-19% damage) | 1 (1=0-19% damage) | 4 (4=60-79% damage) | 3 (3=40-59% damage) | 1 (1=0-19% damage) | 4 (4=60-79% damage) | 4 (4=60-79% damage) | 5 (5=80-100% damage) | 5 (5=80-100% damage) | 5 (5=80-100% damage) | 5 (5=80-100% damage) | – |
| Cn1ncc(-c2ccc(S(C)(=O)=O)c(Cl)c2Cl)c(O)c1=O [Compound 1.050] | 1 (1=0-19% damage) | 2 (2=20-39% damage) | 5 (5=80-100% damage) | 3 (3=40-59% damage) | 5 (5=80-100% damage) | 1 (1=0-19% damage) | 2 (2=20-39% damage) | 4 (4=60-79% damage) | 5 (5=80-100% damage) | 5 (5=80-100% damage) | 5 (5=80-100% damage) | 5 (5=80-100% damage) | – |
| Cn1ncc(-c2ccccc2S(C)(=O)=O)c(O)c1=O [Compound 1.046] | 5 (5=80-100% damage) | 3 (3=40-59% damage) | 5 (5=80-100% damage) | 5 (5=80-100% damage) | 5 (5=80-100% damage) | 1 (1=0-19% damage) | 5 (5=80-100% damage) | 5 (5=80-100% damage) | 5 (5=80-100% damage) | 5 (5=80-100% damage) | 5 (5=80-100% damage) | 5 (5=80-100% damage) | – |
| CCCC[S+]([O-])c1ccccc1-c1cnn(C)c(=O)c1O (stereo not drawn) [Compound 1.047] | 1 (1=0-19% damage) | 1 (1=0-19% damage) | 1 (1=0-19% damage) | 1 (1=0-19% damage) | 1 (1=0-19% damage) | 1 (1=0-19% damage) | 1 (1=0-19% damage) | 1 (1=0-19% damage) | 1 (1=0-19% damage) | 4 (4=60-79% damage) | 3 (3=40-59% damage) | 3 (3=40-59% damage) | – |
| C=C(C)c1nn(C)c(=O)c(O)c1-c1ccc(S(C)(=O)=O)c(C2=NOCC2)c1C [Compound 2.023] | 5 (5=80-100% damage) | 1 (1=0-19% damage) | 5 (5=80-100% damage) | 5 (5=80-100% damage) | 5 (5=80-100% damage) | 4 (4=60-79% damage) | 5 (5=80-100% damage) | 5 (5=80-100% damage) | 5 (5=80-100% damage) | 5 (5=80-100% damage) | 5 (5=80-100% damage) | 5 (5=80-100% damage) | – |
| COCn1ncc(-c2ccccc2S(C)(=O)=O)c(O)c1=O [Compound 1.144] | 5 (5=80-100% damage) | 4 (4=60-79% damage) | 5 (5=80-100% damage) | 5 (5=80-100% damage) | 5 (5=80-100% damage) | 4 (4=60-79% damage) | 5 (5=80-100% damage) | 5 (5=80-100% damage) | 5 (5=80-100% damage) | 5 (5=80-100% damage) | 5 (5=80-100% damage) | 5 (5=80-100% damage) | – |
| Cc1cc(Cl)ccc1-c1cnn(C)c(=O)c1O [Compound 1.082] | 1 (1=0-19% damage) | 1 (1=0-19% damage) | 1 (1=0-19% damage) | 1 (1=0-19% damage) | 1 (1=0-19% damage) | 1 (1=0-19% damage) | 1 (1=0-19% damage) | 1 (1=0-19% damage) | 1 (1=0-19% damage) | 4 (4=60-79% damage) | 2 (2=20-39% damage) | 2 (2=20-39% damage) | – |
| CS(=O)(=O)c1ccc(-c2cnn(C3CC3)c(=O)c2O)c(Cl)c1C1=NOCC1 [Compound 1.158] | – | – | – | – | – | – | – | – | – | – | – | – | herbicidal damage, PRE Application ALOMY ([1]; five point scale): 3 (3=40-59% damage); herbicidal damage, PRE Application SETFA (Setaria faberi (SETFA) [2]; five point scale): 3 (3=40-59% damage); herbicidal damage, PRE Application ECHCG ([3]; five point scale): 5 (5=80-100% damage); herbicidal damage, PRE Application SOLNI (Solanum nigrum (SOLNI) [4]; five point scale): 4 (4=60-79% damage); herbicidal damage, PRE Application AMARE ([5]; five point scale): 5 (5=80-100% damage); herbicidal damage, PRE Application IPOHE ([6]; five point scale): 3 (3=40-59% damage); herbicidal damage, POST Application ALOMY ([7]; five point scale): 5 (5=80-100% damage); herbicidal damage, POST Application SETFA (Setaria faberi (SETFA) [8]; five point scale): 5 (5=80-100% damage); herbicidal damage, POST Application ECHCG ([9]; five point scale): 5 (5=80-100% damage); herbicidal damage, POST Application SOLNI (Solanum nigrum (SOLNI) [10]; five point scale): 5 (5=80-100% damage); herbicidal damage, POST Application AMARE ([11]; five point scale): 5 (5=80-100% damage); herbicidal damage, POST Application IPOHE ([12]; five point scale): 5 (5=80-100% damage) |
